Reference: article PMC8875489, “Pharmaceutical and Safety Profile Evaluation of Novel Selenocompounds with Noteworthy Anticancer Activity” (Pharmaceutics, 2022)
Values after ≈ are worked out from the molar mass of the structure shown. Where two headings read alike, the source gives them in different places.

Experiments:
[1] = Water solubility of methylseleno-aspirin (literature); format: physicochemical; settings: recalculated taking molecular weight into account
Description: The low solubility was not a surprise: according to the literature, the majority of the synthetic organic selenocompounds are poorly soluble in water. […] (or 0.0568 g/L when taking its molecular weight into account). […] To improve the solubility of water-insoluble anticancer drug candidates, the use of solubilizers, such as surfactants, organic solvents, cyclodextrins, lipids, and pH modifiers, is a common approach. Even though lowly water-soluble drugs can become moderately soluble if a suitable amount of additives is used, the usage of the additives need to be kept below their toxicity rate. Moreover, the usage of solubilizers can cause drug instability and is limited due to undesirable effects.

[2] = set-up: method as in PMID 33260948; settings: cited from earlier work

C[Se]C(=O)c1ccccc1OC(C)=O [methylseleno-aspirin]
water solubility [1]: 56.8 µg/mL (≈ 221 µM) | water solubility [2]: 220 µM (≈ 56.6 µg/mL)
